Experimental findings from ChEMBL document CHEMBL5665440, “ASAP - In vitro liver microsomal stability” (2024) are described below.

The nature of this data set: Human liver microsomal stability of compound in microsomal protein, PBS buffer pH 7.4, NADPH, glucose-6-phosphate and glucose-6-phosphate dehydrogenase media. Aliquotes were taken at 5 time points and after stopping the reaction, supernatants were analyzed using HPLC coupled with a tandem mass spectrometer. The elimination constant, half-life, and intrinsic clearance are determined as results using linear regression analysis. It counts as ADME, microsomes, Microsome. The note with it: for half-life / microsomal CLint: liver microsomes; for Remaining / Remaining (without cofactor): microsomes.
Throughout, for Remaining (without cofactor): time not given here.
Throughout, for Remaining: time not given here.

By half-life is commonly meant the time in which the quantity being followed falls by half. A lower half-life goes with fast loss. The term microsomal CLint denotes the capacity of the preparation to metabolise the compound, expressed as a volume cleared per time. Low values mean slow turnover, high ones rapid turnover. As for `O=C(Nc1cc(Cl)cc(C(=O)Nc2ccc3c(c2)CNC3)c1)OCc1ccccc1`, the half-life was 2.19 h, the microsomal CLint came out at 12.7 µL/min/mg, the Remaining worked out at 81.215% and the “Remaining (without cofactor)” value is 98.946%.

Regarding `NCc1cccc([C@@H]2C[C@H]2c2cc(Cl)cc(NC(=O)OCc3ccccc3)c2)c1`, the half-life worked out at 2.44 h, the microsomal CLint is 11.4 µL/min/mg, the Remaining is reported as 87.168% and the “Remaining (without cofactor)” value worked out at 92.769%.

In the case of `O=C(Nc1cc(Cl)cc(C(=O)Nc2cccc(C3CCNCC3)c2)c1)OCc1ccccc1`, the half-life is over 2.89 h, the microsomal CLint is under 10 µL/min/mg, the Remaining turned out to be 91.016% and the “Remaining (without cofactor)” value worked out at 98.201%.

Consider `NCc1cccc(NC(=O)[C@@H](NC(=O)OCc2ccccc2)C2CCCCC2)c1`, for which the half-life worked out at 5.26 h, the microsomal CLint turned out to be 5.29 µL/min/mg, the Remaining was 90.368% and the “Remaining (without cofactor)” value worked out at 108.836%.

With `NCc1cccc(NC(=O)C[C@@H](NC(=O)OCc2ccccc2)c2ccc(OCc3ccccc3)cc2)c1`, the half-life was 1.64 h, the intrinsic metabolic clearance (microsomal CLint) worked out at 17 µL/min/mg, the Remaining was found to be 76.547% and the “Remaining (without cofactor)” value turned out to be 105.768%.

In the case of `NCc1cccc(NC(=O)c2cc(Cl)cc(CN)c2)c1`, the half-life is 1.33 h, the microsomal CLint came out at 21 µL/min/mg, the Remaining worked out at 124.297% and the “Remaining (without cofactor)” value is on record as 104.813%.

Take `O=C(O)c1cc(Cl)ccc1NS(=O)(=O)c1ccc(-c2ccccc2Cl)cc1`: the half-life was 0.0813 h, the microsomal CLint was determined as 343 µL/min/mg, the Remaining worked out at 0.295% and the “Remaining (without cofactor)” value is 109.106%.

With `NCc1cccc(NC(=O)c2cccn3cc(CN4CCCC4)nc23)c1`, the half-life is over 2.89 h, the microsomal CLint is under 10 µL/min/mg, the Remaining is 98.243% and the “Remaining (without cofactor)” value was determined as 100.684%.

Consider `NCc1cccc(NC(=O)[C@@H](NC(=O)OCc2ccccc2)C(C2CCC2)C2CCC2)c1`, for which the half-life is 2.21 h, the microsomal CLint stood at 12.6 µL/min/mg, the Remaining is 77.895% and the “Remaining (without cofactor)” value came out at 94.537%.

In the case of `CCOc1cccc(-c2ccc(S(=O)(=O)Nc3ccc(Cl)cc3C(=O)O)cc2)c1`, the half-life came out at 0.233 h, the microsomal CLint came out at 119 µL/min/mg, the Remaining came out at 15.029% and the “Remaining (without cofactor)” value came out at 93.83%.

In the case of `NCCc1ccc(NC(=O)c2cc(Cl)cc(NC(=O)OCc3ccccc3)c2)cc1`, the half-life was determined as 1.59 h, the microsomal CLint was determined as 17.5 µL/min/mg, the Remaining is reported as 76.258% and the “Remaining (without cofactor)” value is recorded as 74.637%.

For the compound `O=C(Nc1cc(Cl)cc(C(=O)Nc2n[nH]c3c2CNC3)c1)OCc1ccccc1`, the half-life was over 2.89 h, the microsomal CLint is under 10 µL/min/mg, the Remaining is 100.832% and the “Remaining (without cofactor)” value stood at 95.38%.

As for `c1ccc2sc(C3CCN(Cc4c[nH]c5ccccc45)CC3)nc2c1`, the half-life amounted to 0.73 h, the microsomal CLint turned out to be 38.1 µL/min/mg, the Remaining is recorded as 53.75% and the “Remaining (without cofactor)” value amounted to 101.907%.

With `CC(C)CNC(=O)c1cc(Cl)c(F)cc1NS(=O)(=O)c1ccc(Oc2ccccc2Cl)cc1`, the half-life amounted to 0.14 h, the microsomal CLint turned out to be 198 µL/min/mg, the Remaining turned out to be 4% and the “Remaining (without cofactor)” value worked out at 98%.

Consider `Cc1cc(OCc2ccccc2)ccc1NS(=O)(=O)c1ccc(Cl)cc1C(=O)O`, for which the half-life worked out at 1.25 h, the microsomal CLint was 22.3 µL/min/mg, the Remaining is given as 70.445% and the “Remaining (without cofactor)” value stood at 101.396%.

On to `O=C(Nc1cc(Cl)cc(C(=O)Nc2cccc(-c3nnn[nH]3)c2)c1)OCc1ccccc1`, for which the half-life was over 2.89 h, the microsomal CLint is under 10 µL/min/mg, the Remaining was 88.987% and the “Remaining (without cofactor)” value is 100.499%.

As to `NCc1cccc(NC(=O)c2cc(Cl)cc(NC(=O)OCc3ccccc3)c2)c1`, the half-life is over 2.89 h, the microsomal CLint is under 10 µL/min/mg, the Remaining is on record as 93.647% and the “Remaining (without cofactor)” value came to 102.839%.

Turning to `CCc1cc(C(=O)Nc2cccc(CN)c2)sc1-c1ccc(Cl)cc1`, the half-life was over 2.89 h, the microsomal CLint is under 10 µL/min/mg, the Remaining turned out to be 114.72% and the “Remaining (without cofactor)” value was 98.952%.

As for `O=C(NCC(F)(F)F)c1cc(Cl)c(F)cc1NS(=O)(=O)c1ccc(Oc2ccccc2Cl)cc1`, the half-life stood at 0.4 h, the microsomal CLint is 70 µL/min/mg, the Remaining is on record as 33% and the “Remaining (without cofactor)” value came out at 104%.

Take `CC[C@@H](Cc1nnn[nH]1)c1ccc(NC(=O)c2cc(Cl)cc(NC(=O)OCc3ccccc3)c2)cc1`: the half-life came out at 1.12 h, the microsomal CLint turned out to be 24.9 µL/min/mg, the Remaining was determined as 66.587% and the “Remaining (without cofactor)” value is recorded as 100.68%.

Turning to `c1ccc2c(CN3CCC(c4c[nH]c5cccnc45)CC3)c[nH]c2c1`, the half-life amounted to 1.69 h, the microsomal CLint worked out at 16 µL/min/mg, the Remaining came out at 78.186% and the “Remaining (without cofactor)” value worked out at 103.226%.

Regarding `NCc1cccc(NC(=O)CN(C(=O)OCc2ccccc2)c2ccc(OCc3ccccc3)cc2)c1`, the half-life worked out at 2.6 h, the microsomal CLint came out at 11 µL/min/mg, the Remaining came out at 83% and the “Remaining (without cofactor)” value turned out to be 101%.

Turning to `O=C(O)c1cc(Cl)c(F)cc1S(=O)(=O)Nc1ccc(Oc2ccccc2Cl)cc1`, the half-life worked out at 0.413 h, the microsomal CLint is 67.4 µL/min/mg, the Remaining was found to be 33.369% and the “Remaining (without cofactor)” value stood at 97.65%.

Consider `NCc1cccc(NC(=O)c2cc(OCc3ccccc3)ccc2CNC(=O)OCc2ccccc2)c1`, for which the half-life came to 1.31 h, the microsomal CLint came to 21 µL/min/mg, the Remaining is 69% and the “Remaining (without cofactor)” value was 103%.

Turning to `Cc1cc(-c2ccc([C@@H](NC(=O)OCc3ccccc3)C(=O)Nc3cccc(CN)c3)cc2)cs1`, the half-life stood at 0.943 h, the microsomal CLint was 29.5 µL/min/mg, the Remaining was determined as 62.909% and the “Remaining (without cofactor)” value is 101.077%.

Turning to `CC(C)c1nc2c(C(=O)Nc3cccc(CN)c3)cccc2[nH]1`, the half-life was over 2.89 h, the microsomal CLint is under 10 µL/min/mg, the Remaining turned out to be 101.28% and the “Remaining (without cofactor)” value is 99.543%.

As for `O=C(O)c1cc(Cl)ccc1S(=O)(=O)NC1CCN(c2nc(C3CC3)cc(C(F)(F)F)n2)CC1`, the half-life came to 1.06 h, the microsomal CLint is 26.3 µL/min/mg, the Remaining was found to be 62.456% and the “Remaining (without cofactor)” value is reported as 103.505%.

As to `O=C(Nc1cc(Cl)cc(C(=O)Nc2cccc(-n3nn[nH]c3=O)c2)c1)OCc1ccccc1`, the half-life came to 2.48 h, the microsomal CLint was 11.2 µL/min/mg, the Remaining was 81.771% and the “Remaining (without cofactor)” value is 105.363%.
